Laboratory results as given in patent US20030181436A1, “Treatment for AIDS, HIV, and other related diseases and compounds for use therewith” (priority 2001, published 2003).

Experiments:
Format in all cases: cell-based
ACH-2 cells = test: ACH-2 assay, compound toxicity by MTS dye reduction; set-up: Y. CC / 9′. CC: unit not given here; details: exp 2
Experimental: (§1) At assay termination the assay plates were stained with the soluble tetrazolium-based dye MTS (CellTiter® Reagent, Promega) to determined cell viability and quantify compound toxicity. […] At termination of the assay 20 μL of MTS reagent was added per well. The wells were incubated for 4 h at 37° C., 5% CO2. Adhesive plate scalers were used in place of the lids, the sealed plate was inverted several times to mix the soluble formazan product and the plate was read spectrophotometrically at 490 nm with a 650 nm reference wavelength on a Molecular Devices Vmax plate reader.
(§2) U1 and ACH-2 cells were obtained from the AIDS Research and Reference Reagent Program and maintained under standard culture conditions in RPMI 1640 supplemented with 10% fetal bovine serum (heat inactivated), supplemented with 2 mM […], 100U/ml penicillin and 100 μg/ml, streptomycin. U1 cells were derived from the histocytic leukemia cell line U937, and contain a single integrated copy (HIV IIIB) […] a cytokine and/or phorbol inducible provirus. ACH-2 cells are derived from the A3.01 T lymphoblastic cell line, and contain 2 copies of the HIV IIIB provirus, however only one is cytokine and/or phorbol inducible. Cultures were maintained in such a way as to ensure exponential growth of the populations. At the time of the assay, cells were collected by centrifugation and counted by hemacytometer. If cell viability by Trypan Blue dye exclusion was less than 70% the assay was terminated. The cells were adjusted to 5×10^4 cells/mL and 100 μL, placed in 96 well plates with 100 μL media containing a final concentration of […] TNFα and the test compound. Cultures were incubated for 3 days and supernatants harvested. Compound toxicity was determined by MTS dye reduction. Virus expression was measured by supernatant reverse transcriptasc activity.

[1] = test system: TNFα induced U1 cells (HIV IIIB provirus); test: U1 latent infection assay, supernatant reverse transcriptase activity; details: exp 2
Experimental: as §2
Reverse transcriptase activity was measured in cell-free supernatants. Tritiated thymidine triphosphate (NEN) (TTP) was resuspended in distilled H2O at 5 Ci/mL. Poly rA and oligo dT were prepared as a stock solution which was kept at −20° C. The RT reaction buffer was prepared fresh on a daily basis and consists of 125 μL 1.0 M EGTA, 125 μL dH2O, 110 μL 10% SDS, 50 μL 1.0 M Tris (pH 7.4), 50 μL, 1.0 M DTT, and 40 μL 1.0 M MgCl2. These three solutions were mixed together in a ratio of 2 parts TTP, 1 part poly rA:oligo dT, and 1 part reaction buffer. Ten microliters of this reaction mixture was placed in a round bottom microtiter plate and 15 μL of virus containing supernatant was added and mixed. The plate was incubated at 37° C. in a water bath with a solid support to prevent submersion of the plate and incubated for 60 minutes. Following reaction, the reaction volume was spotted onto pieces of DE81 paper, washed 5 times for 5 minutes each in a 5% sodium phosphate buffer, 2 times for 1 minute each in distilled water, 2 times for 1 minute each in 70% ethanol, and then dried. Opti-Fluor O was added to each sample and incorporated radioactivity was quantitated utilizing a Wallac 1450 Microbetaplus liquid scintillation counter.

U1 cells = test: U1 assay, compound toxicity by MTS dye reduction; details: exp 2
Experimental: as §1, §2

HIV = test: HeLa CD4 LTR β-gal time of addition assay; details: single round, high M.O.I.
Text: This time of addition assay measures reproducible events from initial virus binding to the trans activation of the β-galactosidase reporter by newly produced Tat protein. This is a single round of infection assay and is thus “cleaner” and more “precise” than a multi-round time of addition assay. […] Since it is hypothesized that the K and Z compounds work by interfering with virus transcription the later possibility seems more likely. Thus the use of a time of addition assay with PBMCs was utilized.

Potassium Iodiscorbate [Compound K]
TOXICITY VALUES (MTS) MEAN (ACH-2 cells; 0.00063 uM): 0.990 O. D. | Y. CC (ACH-2 cells; 0.00063 uM): 78.2 | TOXICITY VALUES (MTS) MEAN (ACH-2 cells; 0.002 uM): 1.004 O. D. | Y. CC (ACH-2 cells; 0.002 uM): 79.3 | TOXICITY VALUES (MTS) MEAN (ACH-2 cells; 0.00625 uM): 1.000 O. D. | Y. CC (ACH-2 cells; 0.00625 uM): 78.9 | TOXICITY VALUES (MTS) MEAN (ACH-2 cells; 0.02 uM): 0.943 O. D. | Y. CC (ACH-2 cells; 0.02 uM): 74.4 | TOXICITY VALUES (MTS) MEAN (ACH-2 cells; 0.0625 uM): 0.891 O. D. | Y. CC (ACH-2 cells; 0.0625 uM): 70.3 | TOXICITY VALUES (MTS) MEAN (ACH-2 cells; 0.2 uM): 0.830 O. D. | Y. CC (ACH-2 cells; 0.2 uM): 65.6 | TOXICITY VALUES (MTS) MEAN (ACH-2 cells; 0.625 uM): 0.826 O. D. | Y. CC (ACH-2 cells; 0.625 uM): 65.2 | TOXICITY VALUES (MTS) MEAN (ACH-2 cells; 2 uM): 0.694 O. D. | Y. CC (ACH-2 cells; 2 uM): 54.8 | TOXICITY VALUES (MTS) MEAN (ACH-2 cells; 6.25 uM): 0.208 O. D. | Y. CC (ACH-2 cells; 6.25 uM): 16.4 | TOXICITY VALUES (MTS) MEAN (ACH-2 cells; 20 uM): 0.040 O. D. | Y. CC (ACH-2 cells; 20 uM): 3.2 | TOXICITY VALUES (MTS) MEAN (ACH-2 cells; 62.5 uM): 0.020 O. D. | Y. CC (ACH-2 cells; 62.5 uM): 1.6 | TOXICITY VALUES (MTS) MEAN (ACH-2 cells; 200 uM): 0.028 O. D. | Y. CC (ACH-2 cells; 200 uM): 2.2 | % VC ([1]; 0.00063 μM): 112.6% | RT ACTIVITY (cpm) MEAN ([1]; 0.00063 μM): 3019 cpm | % VC ([1]; 0.002 μM): 118.4% | RT ACTIVITY (cpm) MEAN ([1]; 0.002 μM): 3174 cpm | % VC ([1]; 0.00625 μM): 111.5% | RT ACTIVITY (cpm) MEAN ([1]; 0.00625 μM): 2989 cpm | % VC ([1]; 0.02 μM): 98.4% | RT ACTIVITY (cpm) MEAN ([1]; 0.02 μM): 2640 cpm | % VC ([1]; 0.0625 μM): 107.1% | RT ACTIVITY (cpm) MEAN ([1]; 0.0625 μM): 2872 cpm | % VC ([1]; 0.2 μM): 110.0% | RT ACTIVITY (cpm) MEAN ([1]; 0.2 μM): 2949 cpm | % VC ([1]; 0.625 μM): 68.1% | RT ACTIVITY (cpm) MEAN ([1]; 0.625 μM): 1826 cpm | % VC ([1]; 2 μM): 81.7% | RT ACTIVITY (cpm) MEAN ([1]; 2 μM): 2191 cpm | % VC ([1]; 6.25 μM): 73.2% | RT ACTIVITY (cpm) MEAN ([1]; 6.25 μM): 1962 cpm | % VC ([1]; 20 μM): 45.3% | RT ACTIVITY (cpm) MEAN ([1]; 20 μM): 1216 cpm | % VC ([1]; 62.5 μM): 29.07% | RT ACTIVITY (cpm) MEAN ([1]; 62.5 μM): 779 cpm | % VC ([1]; 200 μM): 17.50% | RT ACTIVITY (cpm) MEAN ([1]; 200 μM): 469 cpm | % CC (U1 cells; 0.00063 μM): 118.9% | TOXICITY VALUES (MTS) MEAN (U1 cells; 0.00063 μM): 1.546 O. D. | % CC (U1 cells; 0.002 μM): 119.4% | TOXICITY VALUES (MTS) MEAN (U1 cells; 0.002 μM): 1.553 O. D. | % CC (U1 cells; 0.00625 μM): 97.8% | TOXICITY VALUES (MTS) MEAN (U1 cells; 0.00625 μM): 1.271 O. D. | % CC (U1 cells; 0.0625 μM): 94.0% | TOXICITY VALUES (MTS) MEAN (U1 cells; 0.0625 μM): 1.222 O. D. | % CC (U1 cells; 0.2 μM [c7]): 84.8% | TOXICITY VALUES (MTS) MEAN (U1 cells; 0.2 μM [c7]): 1.103 O. D. | % CC (U1 cells; 0.2 μM [c9]): 101.5% | TOXICITY VALUES (MTS) MEAN (U1 cells; 0.2 μM [c9]): 1.320 O. D. | % CC (U1 cells; 0.625 μM): 93.4% | TOXICITY VALUES (MTS) MEAN (U1 cells; 0.625 μM): 1.214 O. D. | % CC (U1 cells; 2 μM): 89.1% | TOXICITY VALUES (MTS) MEAN (U1 cells; 2 μM): 1.158 O. D. | % CC (U1 cells; 6.25 μM): 83.3% | TOXICITY VALUES (MTS) MEAN (U1 cells; 6.25 μM): 1.083 O. D. | % CC (U1 cells; 20 μM): 70.3% | TOXICITY VALUES (MTS) MEAN (U1 cells; 20 μM): 0.913 O. D. | % CC (U1 cells; 62.5 μM): 80.8% | TOXICITY VALUES (MTS) MEAN (U1 cells; 62.5 μM): 1.050 O. D. | % CC (U1 cells; 200 μM): 26.3% | TOXICITY VALUES (MTS) MEAN (U1 cells; 200 μM): 0.341 O. D. | inhibition of HIV replication (HIV): failed to inhibit
